# Experimental data taken from patent publication US8754119B2, “Use of rotigotine for the treatment of depression” (priority 2003, dated 2014).
# “Also recorded” adds a separate entry of the source.
# Tests used:
# a2 receptors [1] = assay: functional action on a2 receptors; type: biochemical
# rats = assay: forced swim test; type: in vivo; conditions: subcutaneously applied
# Text: The “forced swim test” is an animal model, in which depressive episodes are triggered by acute stress. In this case, rats are forced to swim in a limited space. After initial attempts to save themselves, in which the animals grasp the hopelessness, they lapse into immobility. On repetition of the experiment, the animals remain immobile from the beginning of the experiment. In the event of pre-treatment with antidepressants, the period of immobility is shortened during the repetition experiment; the animals generally start searching and escape movements directly after transfer into the water basin (Porsolt, Biomedicine 30, 1979, 139).
# 5HT1A receptor [2] = biological target: T1, 5HT1A receptor (Homo sapiens, UniProt P08908); assay: binding to 5HT1A receptor
# T1 sequence (P08908 1-422): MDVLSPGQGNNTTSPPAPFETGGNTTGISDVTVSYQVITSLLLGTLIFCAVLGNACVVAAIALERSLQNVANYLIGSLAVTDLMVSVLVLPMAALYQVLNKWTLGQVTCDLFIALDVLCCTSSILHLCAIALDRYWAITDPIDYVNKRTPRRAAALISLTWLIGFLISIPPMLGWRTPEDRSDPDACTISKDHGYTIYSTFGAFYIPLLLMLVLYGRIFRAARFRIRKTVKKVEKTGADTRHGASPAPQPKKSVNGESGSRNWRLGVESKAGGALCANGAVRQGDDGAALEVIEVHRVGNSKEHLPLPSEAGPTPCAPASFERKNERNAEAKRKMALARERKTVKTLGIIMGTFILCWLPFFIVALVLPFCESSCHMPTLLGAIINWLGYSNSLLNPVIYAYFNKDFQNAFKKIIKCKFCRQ
# 5HT1A receptor [3] = biological target: T1, 5HT1A receptor; assay: functional activity on 5HT1A receptors; type: biochemical
# Sprague-Dawley rats = assay: bulbectomy study (olfactory bulb removed, locomotor activity); type: in vivo
# Description: In a further animal model (Embodiment 3) an investigation was made as to whether the antidepressive effects of rotigotine can be distinguished from a general motor stimulation. In this case, rotigotine was administered to rats, whose olfactory bulb had been removed on both sides. The removal of the olfactory bulb leads in the untreated control group to an adaptive hyperactivity. It is known from the literature that chronically administered antidepressants lead to a reduction in movement activity of the animals in this model, while stimulants further increase the motor activity (van Riezen H et al., Br. J. Pharmacol. 60(4), 1977, 521; Kelly J P et al., Pharmacol. Ther. 74(3), 1997, 299). Therefore, it is possible to discriminate between antidepressive and non-specific stimulatory effects of an active ingredient with this model. […] The bulbectomy study was carried out on Sprague-Dawley rats. A group, which had seemingly been operated on, served as a control group and was operated on without the olfactory bulb being removed. 14 days after the operation, the rats were treated with excipients, rotigotine depot suspension (every second day) or imipramine. On test days, the rats were taken onto a test field and left to themselves for 3 minutes. The locomotor activities of the animals were measured here with the aid of the number of lines crossed.
# a2 receptors [4] = assay: binding to a2 receptors
compound,measurement,setting,value
"CCCN(CCc1cccs1)C1CCc2c(O)cccc2C1 (single isomer, unassigned; (-)) [rotigotine, (−)-5,6,7,8-tetrahydro-6-[propyl[2-(2-thienyl)ethyl]amino]-1-naphthol]",mode of action on a2 receptors,a2 receptors [1],acts antagonistically
same,period of immobility,rats,clear reduction in the immobility period
same,period of immobility,rats; listed as Rotigotine,significantly shortened period of immobility
same,binding to the 5HT1A receptor,5HT1A receptor [2],binds
same,mode of action on 5HT1A receptors,5HT1A receptor [3],agonistic activity
same,bulbectomy-induced locomotor hyperactivity,"Sprague-Dawley rats; bulbectomised rats, low doses",virtually complete suppression of the bulbectomy-induced locomotor hyperactivity; also recorded: significantly reduces the motor hyperactivity
same,locomotor activity,"Sprague-Dawley rats; higher doses, bulbectomised and control animals",stimulatory dopamine-agonistic effect predominates; also recorded: non-specific activation of the locomotor activity dominates
same,binding to a2 receptors,a2 receptors [4],binds
